Measurements from patent US20150181885A1, “METHOD FOR CONTROLLING FUNGAL DISEASES IN MUSHROOM PRODUCTION” (priority 2012, published 2015).

Assays:
Verticillium fungicola = test: In vitro antifungal activity assay in 96-well microtiter plates against Verticillium fungicola; assay type: cell-based; settings: 3 days incubation at 25° C.
Procedure: The following compositions are tested: […] Subsequently, 100 μl of a Verticillium fungicola suspension prepared in PCB medium is used to inoculate each well with 5.0×10^3 spores/ml. […] After incubation of the microtiter plates for 3 days at 25° C., the in vitro antifungal activity (%) of the individual active ingredients was assessed by calculating the reduction in mould growth observed in the presence of the active ingredient in comparison to the mould growth observed in the absence of the active ingredient. The expected antifungal activity (E in %) of the active ingredient combination was calculated according to the Colby equation (Colby, 1967): […] wherein X and Y are the observed antifungal activities (in %) of the individual active ingredients X and Y, respectively.

Trichoderma harzianum = test: In vitro antifungal activity assay in 96-well microtiter plates against Trichoderma harzianum; assay type: cell-based
Procedure: Subsequently, 100 μl of a Verticillium fungicola suspension prepared in PCB medium is used to inoculate each well with 5.0×10^3 spores/ml.
After incubation of the microtiter plates for 3 days at 25° C., the in vitro antifungal activity (%) of the individual active ingredients was assessed by calculating the reduction in mould growth observed in the presence of the active ingredient in comparison to the mould growth observed in the absence of the active ingredient. The expected antifungal activity (E in %) of the active ingredient combination was calculated according to the Colby equation (Colby, 1967): […]
wherein X and Y are the observed antifungal activities (in %) of the individual active ingredients X and Y, respectively. If the observed antifungal activity (O in %) of the combination exceeds the expected antifungal activity (E in %) of the combination and the resulting synergy factor O/E is thus >1.0, the combined application of the active ingredients leads to a synergistic antifungal effect.
The experiment was conducted as described in Example 1, except for the fact that the following compositions were tested: • Control (no active ingredient) • 1.25 ppm Natamycin • 5, 10 or 15 ppm thiophanate-methyl • 1.25 ppm Natamycin+5 ppm thiophanate-methyl • 1.25 ppm Natamycin+10 ppm thiophanate-methyl • 1.25 ppm Natamycin+15 ppm thiophanate-methyl
Furthermore, Trichoderma harzianum was used for inoculation. After 3 and 5 days of incubation at 25° C., the antifungal activity (in %) of the individual and combined active ingredients was determined according to the method described in Example 1.

Structure (SMILES) | Observed antifungal activity O (%) (Verticillium fungicola; Natamycin 2.5 ppm) | Observed antifungal activity O (%) (Trichoderma harzianum; Thiophanate-methyl 5 ppm, 3 days incubation at 25° C.) | Observed antifungal activity O (%) (Trichoderma harzianum; Thiophanate-methyl 10 ppm, 5 days incubation at 25° C.) | Observed antifungal activity O (%) (Trichoderma harzianum; Thiophanate-methyl 15 ppm, 5 days incubation at 25° C.) | Observed antifungal activity O (%) (Verticillium fungicola; Thiophanate-methyl 15 ppm) | Observed antifungal activity O (%) (Verticillium fungicola; Thiophanate-methyl 20 ppm)
C[C@@H]1C/C=C/C=C/C=C/C=C/[C@H](O[C@@H]2O[C@H](C)[C@@H](O)[C@H](N)[C@@H]2O)C[C@@H]2O[C@](O)(C[C@@H](O)C[C@H]3O[C@@H]3/C=C/C(=O)O1)C[C@H](O)[C@H]2C(=O)O [Natamycin, natamycin] | 0% |  |  |  |  | 
COC(=O)NC(=S)Nc1ccccc1NC(=S)NC(=O)OC [Thiophanate-methyl, dimethyl 4,4′-(o-phenylene)bis(3-thioallophanate)] |  | 0% | 0% | 0% | 50% | 50%
